From paper PMC9136578 (Acta Pharmaceutica Sinica. B, 2021) come the findings set out here.

The structures appear in SMILES notation. Numbered stars: 1 amine (or outer) side, 2 acyl side, 3 side chain; on linkers, the order of the positions; unused ones are H or OH. Square brackets hold non-standard residues; d marks the D form. Side chains are listed from the residue outwards. Peptide text beside a SMILES is read from it. * marks the point of attachment. C18 diacid = O=C(O)CCCCCCCCCCCCCCCCC(=O)*; γGlu = O=C(O)[C@H](CCC(=O)[*:2])N[*:1]; PEG2 = NCCOCCOCCC(=O)O

The target of the experiment is human GLP-1R (Homo sapiens, UniProt P43220). The experiment can be described thus: CRE-driven luciferase reporter. The class given is cell-based.
Chain of human GLP-1R (P43220 24-463): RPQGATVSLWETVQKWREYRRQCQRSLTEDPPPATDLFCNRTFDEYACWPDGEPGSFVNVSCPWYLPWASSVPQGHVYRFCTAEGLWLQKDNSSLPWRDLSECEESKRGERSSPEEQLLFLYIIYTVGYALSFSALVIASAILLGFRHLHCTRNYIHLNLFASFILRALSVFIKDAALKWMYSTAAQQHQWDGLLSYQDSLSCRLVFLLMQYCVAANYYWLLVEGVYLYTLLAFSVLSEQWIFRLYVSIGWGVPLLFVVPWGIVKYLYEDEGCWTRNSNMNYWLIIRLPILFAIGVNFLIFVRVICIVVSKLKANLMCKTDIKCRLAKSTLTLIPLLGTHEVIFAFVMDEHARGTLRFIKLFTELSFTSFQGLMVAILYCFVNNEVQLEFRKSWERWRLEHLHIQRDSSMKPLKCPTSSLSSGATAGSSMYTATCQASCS
The EC50 is the concentration that produces a half-maximal response. A low value points to a more potent agent. `CC(C)C[C@H](NC(=O)[C@H](CC(C)C)NC(=O)[C@H](Cc1c[nH]c2ccccc12)NC(=O)[C@H](CCC(=O)O)NC(=O)[C@@H](NC(=O)[C@H](Cc1ccccc1)NC(=O)[C@H](CC(=O)O)NC(=O)[C@H](Cc1c[nH]cn1)NC(=O)[C@H](C)NC(=O)[C@H](C)NC(=O)[C@H](CCCCNC(=O)CCOCCOCCNC(=O)CCOCCOCCNC(=O)CC[C@H](NC(=O)CCCCCCCCCCCCCCCCC(=O)O)C(=O)O)NC(=O)[C@H](CO)NC(=O)[C@H](CC(=O)O)NC(=O)[C@H](CC(C)C)NC(=O)[C@H](Cc1ccc(O)cc1)NC(=O)[C@H](CCCCN)NC(=O)[C@H](CO)NC(=O)[C@H](Cc1ccc(O)cc1)NC(=O)[C@H](CC(=O)O)NC(=O)[C@H](CO)NC(=O)[C@@H](NC(=O)[C@H](Cc1ccccc1)NC(=O)[C@@H](NC(=O)CNC(=O)[C@H](CCC(N)=O)NC(=O)[C@@H](CO)NC(=O)[C@@H](N)Cc1c[nH]cn1)[C@@H](C)O)[C@@H](C)O)C(C)C)C(=O)N[C@@H](CCCNC(=N)N)C(=O)N[C@@H](C)C(N)=O` [TA002] (H-H[dS]QGTFTSDYSKYLDSK([PEG2-PEG2-γGlu-C18 diacid])AAHDFVEWLLRA-NH2) had an EC50 of 0.32 nM.
Regarding `CC(C)C[C@H](NC(=O)[C@H](CC(C)C)NC(=O)[C@H](Cc1c[nH]c2ccccc12)NC(=O)[C@H](CCC(=O)O)NC(=O)[C@@H](NC(=O)[C@H](Cc1ccccc1)NC(=O)[C@H](CC(=O)O)NC(=O)[C@H](Cc1c[nH]cn1)NC(=O)[C@H](C)NC(=O)[C@H](C)NC(=O)[C@H](CCCCNC(=O)CCOCCOCCNC(=O)CCOCCOCCNC(=O)CC[C@H](NC(=O)CCCCCCCCCCCCCCCCC(=O)O)C(=O)O)NC(=O)[C@H](CO)NC(=O)[C@H](CC(=O)O)NC(=O)[C@H](CC(C)C)NC(=O)[C@H](Cc1ccc(O)cc1)NC(=O)[C@H](CCCCN)NC(=O)[C@H](CO)NC(=O)[C@H](Cc1ccc(O)cc1)NC(=O)[C@H](CC(=O)O)NC(=O)[C@H](CO)NC(=O)[C@@H](NC(=O)[C@H](Cc1ccccc1)NC(=O)[C@@H](NC(=O)CNC(=O)[C@H](CCC(N)=O)NC(=O)[C@@H](CO)NC(=O)[C@@H](N)Cc1c[nH]cn1)[C@@H](C)O)[C@@H](C)O)C(C)C)C(=O)N[C@@H](CC(N)=O)C(=O)NCC(=O)NCC(=O)N1CCC[C@H]1C(=O)N[C@@H](CO)C(=O)N[C@@H](CO)C(=O)NCC(=O)N[C@@H](C)C(=O)N1CCC[C@H]1C(=O)N1CCC[C@H]1C(=O)N1CCC[C@H]1C(=O)N[C@@H](CO)C(N)=O` [TA004] (H-H[dS]QGTFTSDYSKYLDSK([PEG2-PEG2-γGlu-C18 diacid])AAHDFVEWLLNGGPSSGAPPPS-NH2), the midpoint of the response, the EC50, lay at 0.19 nM.
The result for `CCCCCCCCCCCCCCCCCC(=O)NCCOCCOCCC(=O)NCCOCCOCCC(=O)NCCCC[C@H](NC(=O)[C@H](CC(=O)O)NC(=O)[C@H](CO)NC(=O)[C@@H](NC(=O)[C@H](Cc1ccccc1)NC(=O)[C@@H](NC(=O)CNC(=O)[C@H](CCC(N)=O)NC(=O)[C@@H](CO)NC(=O)[C@@H](N)Cc1c[nH]cn1)[C@@H](C)O)[C@@H](C)O)C(=O)N[C@@H](CO)C(=O)N[C@@H](CCCCN)C(=O)N[C@@H](Cc1ccc(OS(=O)(=O)F)cc1)C(=O)N[C@@H](CC(C)C)C(=O)N[C@@H](CC(=O)O)C(=O)NC(C)(C)C(=O)N[C@@H](CCCNC(=N)N)C(=O)N[C@@H](CCCNC(=N)N)C(=O)N[C@@H](C)C(=O)N[C@@H](CCC(N)=O)C(=O)N[C@@H](CC(=O)O)C(=O)N[C@@H](Cc1ccccc1)C(=O)N[C@H](C(=O)N[C@@H](CCC(N)=O)C(=O)N[C@@H](Cc1c[nH]c2ccccc12)C(=O)N[C@@H](CC(C)C)C(=O)N[C@@H](CCSC)C(=O)N[C@@H](CC(N)=O)C(=O)N[C@H](C(=O)NCC(=O)NCC(=O)N1CCC[C@H]1C(=O)N[C@@H](CO)C(=O)N[C@@H](CO)C(=O)NCC(=O)N[C@@H](C)C(=O)N1CCC[C@H]1C(=O)N1CCC[C@H]1C(=O)N1CCC[C@H]1C(=O)N[C@@H](CO)C(N)=O)[C@@H](C)O)C(C)C` [TA006] reads 2.5 nM.
